Measurements published in PubChem BioAssay AID743330 (NMMLSC, 2014).

Columns and labels:
Assay in all cases: GTPase panel EC50 shift with labeled GTP level, profiling panel, mechanism study, biochemical, four GTPases, bead flow cytometry (AID 743330)
Details in all cases: bead-based flow cytometry, fluorescent GTP binding to GTPases
Cdc42 mutant = molecular target: Cdc42 mutant
Cdc42 = molecular target: Cdc42
Rab7 = molecular target: Rab7
Ras = molecular target: Ras

Row | Structure (SMILES) | EC50 (Cdc42 mutant; EC50 at 25 nM fluorescent GTP) | EC50 (Cdc42 mutant; EC50 at 100 nM fluorescent GTP) | EC50 (Cdc42; EC50 at 100 nM fluorescent GTP) | EC50 (Rab7; EC50 at 25 nM fluorescent GTP) | EC50 (Rab7; EC50 at 100 nM fluorescent GTP) | EC50 (Ras; EC50 at 25 nM fluorescent GTP) | EC50 (Ras; EC50 at 100 nM fluorescent GTP) | EC50 (Cdc42; EC50 at 25 nM fluorescent GTP)
1 | CCC1(C)Cc2c(sc(NC(=S)NC(=O)c3ccccc3)c2C(=O)O)CO1 (stereo not given) | 12 nM | 27 nM | 20 nM | 8 nM | 29 nM | 6 nM | 23 nM | 
2 | CC1(C)Cc2c(sc(NC(=S)NC(=O)c3ccc(F)cc3)c2C(=O)O)CO1 | 120 nM | 977 nM | 1040 nM | 55 nM | 479 nM | 66 nM | 444 nM | 248 nM
